Measurements reported in patent EP4703362A1 (Chengdu Sibeibo Pharmaceutical Technology Co., Ltd, priority 2023, dated 2024).
Where two headings read alike, the source gives them in different places.

Assays:
[1] = stability test in liver microsomes (rat); assay type: in vitro ADME
Description: (§1) The stability of the compound of the present invention in liver microsomes of rat, monkey and human was determined. Tested compounds of the present invention were the compounds in Examples 6, 8 and 29, and a control drug was Zavegepant.
(§2) 3.2 An appropriate amount of liver microsome solution was transferred into a 1 mL 96-deep-well plate, added with a tested drug liquid (or a probe substrate solution), and pre-incubated in a thermal mixer at 37°C for 5 minutes. Two parts of mixed solutions were taken out from the system and added with 1×PBS to replace NADPH, and the mixed solutions were taken out at 0 and 60 minutes respectively, and added with methanol (containing an internal standard) to terminate the reaction. In the remaining mixed system, each well was added with NADPH to start the reaction. In the tested substance group, mixed solutions were taken out from the system at 0, 5, 15, 30, 45 and 60 minutes, and in the control group, mixed solutions were taken out from the system at 0, 30 and 60 minutes, and the mixed solutions were added methanol (containing an internal standard) to terminate the reaction. All samples of the terminated reaction were mixed evenly and centrifuged in a centrifuge at 3800 rpm for 15 minutes, and the supernatant was taken for LC-MS/MS analysis.
(§3) A peak area was determined by an extracted ion chromatogram. A slope value k was determined by linear regression of a remaining percentage of a parent drug relative to a natural logarithm of an incubation time curve. According to the slope, in-vitro half-life periods (t1/2) were respectively calculated, and in-vitro intrinsic clearance rates (CLint, represented by µL/min/mg protein) were calculated. Calculation formulas were as follows: t1/2 = ln2/k = 0.693/k; and CLint = 0.693/t1/2 /liver microsome protein concentration [formula]

[2] = stability test in liver microsomes (monkey); assay type: in vitro ADME
Description: as §1, §2, §3

[3] = stability test in liver microsomes (human); assay type: in vitro ADME
Description: as §1, §2, §3

[4] = plasma protein binding rate test, equilibrium dialysis (rat); assay type: in vitro ADME, SD rat; settings: 1 µM, 6 hours, 37°C
Description: (§4) Protein binding rates of the compound of the present invention in plasma of rat, monkey and human were determined by an equilibrium dialysis method. Tested compounds of the present invention were the compounds in Examples 6, 8 and 29, and a control drug was Zavegepant.
(§5) 3.1 A dry dialysis membrane was rinsed with ultrapure water for 2-3 times, and then soaked in a phosphate buffer for 1 hour for later use. Polytetrafluoroethylene module was soaked in 20% ethanol for 30 minutes, and then surface moisture was dried with dust-free paper for later use. The pretreated dialysis membrane was assembled into a dialysis plate according to the product specification, and one side (receptor compartment) of an osmotic membrane in each dialysis well was added with 100 µL of receptor fluid (100 mM phosphate buffer solution plus 0.002% Tween 80).
(§6) 3.2 The plasma was put into a centrifuge tube, a working solution of a tested substance was added into the plasma, wherein a final concentration was 1 µM, and the mixture was turned upside down and mixed evenly (this step was carried out in ice bath). 20 µL of drug-containing plasma each was taken, and was respectively transferred to a 96-well sample plate according to two parts in parallel, and stored in a refrigerator at -20°C as a T0 sample.
(§7) 3.3 Another 100 µL of the above drug-containing plasma was transferred to the other side (sample compartment) of the membrane in the dialysis device according to two parts in parallel, and incubated under vibration at a constant temperature of 37°C for 6 hours. After 6 hours of incubation, 20 µL of the plasma was respectively taken out from the receptor compartment and the sample compartment after equilibration to obtain samples B and A. The samples B and A were respectively added with corresponding volumes of corresponding blank plasma or phosphate buffer solution (containing 0.002% Tween 80), so that a volume ratio of the plasma to the buffer solution in each sample well was 1: 1.
(§8) 3.4 All sample wells were added with 250 µL of methanol solution containing an internal standard, mixed evenly and then centrifuged in a centrifuge at 3800 rpm for 10 minutes. […]
(§9) A plasma protein binding rate and a recovery rate of the compound in plasma were calculated by the following formulas: dissociation percentage (%) = CB /CA; [formula] plasma protein binding rate (fb%) = 1−dissociation percentage (%); [formula] recovery rate (%) = (CB+CA)/CT0 [formula] wherein CB was a concentration of the compound in the receptor fluid after equilibrium dialysis; CA was a concentration of the compound in the drug-containing plasma after equilibrium dialysis; and CT0 was an initial concentration of the compound in plasma.

[5] = plasma protein binding rate test, equilibrium dialysis (monkey); assay type: in vitro ADME, cynomolgus monkey; settings: 1 µM, 6 hours, 37°C
Description: as §4, §5, §6, §7, §8, §9

[6] = plasma protein binding rate test, equilibrium dialysis (human); assay type: in vitro ADME; settings: 1 µM, 6 hours, 37°C
Description: as §4, §5, §6, §7, §8, §9

[7] = in-vivo pharmacokinetic study on SD rats, intravenous and intranasal administration; settings: for AUC: read-out: Area under curve AUC; for bioavailability: read-out: Bioavailability F%; for half-life: read-out: Half-life period t1/2 (converted); for Vd: read-out: Volume of distribution steady-state Vss
Description: Species: SD rats, male, SPF level.
2.1 An appropriate amount of drug was accurately weighed and added with 50 mM succinate buffer (diluted with D5W, pH=5-6), and mixed evenly and dissolved fully in an ultrasonic and vortexed mode to obtain a 0.2 mg/mL drug solution for intravenous (IV) administration.
2.2 An appropriate amount of drug was accurately weighed and added with 50 mM succinate buffer (diluted with pure water, pH=5-6), and mixed evenly and dissolved fully in an ultrasonic and vortexed mode to obtain a 10 mg/mL drug solution for intranasal (IN) administration.
5 minutes, 10 minutes, 15 minutes, 0.5 hour, 1 hour, 2 hours, 4 hours, 8 hours and 24 hours after administration.
Blood was collected through a jugular vein, about 0.2 mL of each sample was collected, EDTA-K2 was used for anticoagulation, the collected blood sample was placed on ice, and plasma was centrifugally separated within 2 hours (at 6000 g and 2-8°C for 5 minutes). The collected plasma samples were stored in a refrigerator at -80°C before analysis, and the remaining plasma samples after analysis were continuously stored in the refrigerator at -80°C for temporary storage.
A concentration of a specified compound in plasma was determined by an LC-MS/MS method, and main pharmacokinetic parameters were calculated by a Winnolin 8.3 non-compartmental model.

[8] = test system: capsaicin-induced change of blood flow in forearm skin of cynomolgus monkeys; assay: in-vivo pharmacodynamic study, capsaicin-induced change of blood flow in forearm skin; settings: 0.05 mg/kg IV, 10 minutes after capsaicin treatment
Description: • 2.1Animal information: Species and strain: cynomolgus monkeys, male (5-8 kg), animal license: SYXK(Su)2019-0004, depilated 3 days before the experiment. • 2.2Preparation of test sample: An appropriate amount of drug was accurately weighed and dissolved in sterile saline solution, and mixed evenly and dissolved fully in an ultrasonic and vortexed mode to obtain a 0.05 mg/ml drug solution for intravenous (IV) administration. • 2.3In a pre-test stage, a blood flow in a forearm of an anesthetized animal was scanned by a blood flow meter, and an O-shaped rubber ring was placed on an inner side of the arm, avoiding obvious blood vessels.

CGRP receptor = molecular target: T1, CGRP receptor (Homo sapiens, UniProt O60894+Q16602); assay: Competitive binding determination of in-vitro [125I] CGRP; settings: competition with 125I-CGRP (Human) 200 pM, SK-N-MC cell membrane
T1 construct: A tissue homogenate of SK-N-MC cell membrane was used as a receptor source; host or cells: SK-N-MC (membrane preparation)

[9] = male, rat, plasma, other: intranasal, IN@2 mg/kg

SMILES | half-life at 1 µM [1] [h] | microsomal CLint at 1 µM [1] [µL/min/mg] | % remaining (60 min) [1] [%] | half-life at 1 µM [2] [h] | microsomal CLint at 1 µM [2] [µL/min/mg] | % remaining (60 min) [2] [%] | half-life at 1 µM ([3]; 1.0 µM) [h] | % remaining (60 min) [3] [%] | fb (%) [4] [%] | fb (%) [5] [%] | fb (%) [6] [%] | blood flow inhibition rate (Mean) [8] [%] | other results
Cc1cc(C[C@@H](NC(=O)N2CCC(c3cc4c([nH]c3=O)SCCC4)CC2)C(=O)N2CCN(C3CCN(C)CC3)CC2)cc2cn[nH]c12 [Example 6, (R)-N-(3-(7-methyl-1H-indazole-5-yl)-1-(4-(1-methylpiperidine-4-yl)piperazine-1-yl)-1-oxopropan-2-yl)-4-(7-oxo-3,4,7,8-tetrahydro-2H-thiopyrano[2,3-b]pyridine-6-yl)piperidine-1-for mamide] | > 2 | 2.4 | 91.5 | > 2 | 0.8 | 96.9 | > 2 | 131 | 90.0 | 61.3 | 76.7 | 355.3 | AUC ([7]; rat, plasma, IN@2 mg/kg): 2400 ng·h/mL; bioavailability ([7]; rat, plasma, IN@2 mg/kg): 20.1%; half-life ([7]; rat, plasma, IN@2 mg/kg): 3.8 h; AUC ([7]; rat, plasma, IV@1 mg/kg): 5990 ng·h/mL; half-life ([7]; rat, plasma, IV@1 mg/kg): 2.52 h; Vd ([7]; rat, plasma, IV@1 mg/kg): 0.29 L/kg
Cc1cc(C[C@@H](NC(=O)N2CCC(c3cc4ccccc4[nH]c3=O)CC2)C(=O)N2CCN(C3CCN(C)CC3)CC2)cc2cn[nH]c12 [Zavegepant, zavegepant, reference compound] | > 2 | 2.8 | 95.5 | 1.78 | 13 | 72.1 | 1.11 | 57.5 | 92.7 | 78.5 | 82.0 | 89.7 | Ki (CGRP receptor): 0.0498 nM; microsomal CLint at 1 µM ([3]; 1.0 µM): 20.8 µL/min/mg; Apparent clearance CL ([7]; IV@1 mg/kg): 4.59 mL/min/kg; AUC ([7]; male, rat, plasma, IV@1 mg/kg): 3620 ng·h/mL; half-life ([7]; male, rat, plasma, IV@1 mg/kg): 2.58 h; Vd ([7]; male, rat, plasma, IV@1 mg/kg): 0.35 L/kg; AUC [7, 9]: 385 ng·h/mL; bioavailability [7, 9]: 5.31%; Cmax ([7]; male, rat, plasma, other: intranasal, IN@2 mg/kg, read-out: Concentration to peak Cmax): 645 ng/mL; half-life [7, 9]: 1.08 h
